{"source": "patent US20230339983A1", "about": "“FLUORESCENT COMPOUNDS SPECIFIC FOR PLURIPOTENT STEM CELLS AND REPROGRAMMING-READY CELLS AND METHODS OF USING THE SAME” (Agency for Science, Technology and Research, priority 2018, published 2023)", "assay_type_in_all_cases": "cell-based, human", "key": {"reprogrammed DPSCs": {"tested_on": "reprogrammed DPSCs", "assay": "FACS of reprogrammed DPSCs stained with BDL-E5 at 7 dpn and iPS colony count", "conditions": "DPSCs sorted at 7 dpn, seeded on MEF, two weeks", "description": "(§1) Reprogrammed ASCs and DPSCs, AiPS and DiPS on D7 or D14 dpn were stained with BDL-E5 for 1 hour and then harvested using TrypLE and resuspended in 1×PBS. The cells were then subjected to FACS in the MoFlo XDP Cell Sorter (Beckman Coulter) under sterile conditions.\nDifferent DPSC cell lines were reprogrammed using the feeder-free episomal method, incubated with BDL-E5, and subjected to fluorescence activated cell sorting (FACS) at 7 dpn. […] FIG. 10A (i) and (ii) represents the unstained DPSCs.\nThe cells were allowed to grow for the next two weeks until colonies appeared."}, "[1]": {"tested_on": "reprogrammed SC-ASCs and VS-ASCs", "assay": "FACS of reprogrammed ASCs stained with BDL-E5 at 14 dpn and iPS colony count", "conditions": "for iPS colonies from BDL-E5+ versus BDL-E5- sorted cells: seeded on MEF; for percentage of cells staining negatively / percentage of cells staining positively: FACS at 14 dpn", "excerpt": "WAT was isolated from subcutaneous (abdominal region) and visceral (omental region) depots from 2 human volunteers (S15-S16, undergoing bariatric surgery, with approval by the National Healthcare Group Domain Specific Review Board at National Healthcare Group, Singapore) as described previously (Ong, et al. (2014). Stem Cell Reports 2, 171-179; Takeda, et al. (2016). Diabetes 65, 1164-1178). […]. ASCs were isolated from WAT and cultured, as previously described (Sugii, et al. (2011). Nature Protoc 6, 346-358). Cells only up to passage 5 were used for experiments. MSC cell surface markers and multipotency of ASCs used herein were confirmed by flow cytometry and differentiation assays, respectively (Ong, et al. (2014). Stem Cell Reports 2, 171-179).\nas §1\nNext, the inventors investigated whether the probe was useful in assisting reprogramming selection of obese patient-derived ASCs from subcutaneous (SC) and visceral (VS) fat depots. […] FIG. 10A (iii) and (iv) represents the unstained ASCs. BDL-E5^+ and BDL-E5^− cells sorted using FACS were seeded onto MEF-coated plates.\nTo investigate the quality of the BDL-E5^+ generated iPS cells, the iPS colonies were passaged for several generations. As shown in FIG. 10B(i), ASC-derived BDL-E5^+ colonies remained well self-renewed and TRA-1-60 positive for subsequent passages."}, "DPSCs": {"tested_on": "DPSCs", "assay": "Proliferation assay (Trypan Blue viable cell count)", "conditions": "500 nM", "description": "To ensure that BDL-E5 was not toxic to the cells, DPSCs were incubated with BDL-E5 (500 nM) for 48 h and 72 h and viable cells were counted in a haemocytometer using the Tryphan Blue method. DPSCs in which CREB1 was over-expressed or silenced were also counted at 72 h post nucleofection to determine if gene manipulation has affected the cell proliferation."}}, "data": [{"smiles": "COc1cc(F)c(/C=C/c2cc(C)c3n2[B-](F)(F)[N+]2=C(CCC(=O)NCCN(C)C)C=CC2=C3)cc1OC", "note": "[BDL-E5]", "values": [{"measurement": "iPS colonies from BDL-E5+ (top 10%) versus BDL-E5- (bottom 10%) sorted cells", "setting": "reprogrammed DPSCs", "value": "gave rise to an increased number of iPSCs"}, {"measurement": "iPS colonies from BDL-E5+ versus BDL-E5- sorted cells", "setting": "[1]; SC-ASCs sorted at 14 dpn", "value": "gave rise to more colonies than the BDL-E5^− population"}, {"measurement": "percentage of cells staining negatively", "setting": "[1]; SC-ASCs", "value": "~11", "unit": "%"}, {"measurement": "percentage of cells staining positively", "setting": "[1]; SC-ASCs", "value": "~33", "unit": "%"}, {"measurement": "iPS colonies from BDL-E5+ versus BDL-E5- sorted cells", "setting": "[1]; VS-ASCs sorted at 14 dpn", "value": "at least some BDL-E5^+ VS-ASCs gave rise to iPS colonies"}, {"measurement": "percentage of cells staining negatively", "setting": "[1]; VS-ASCs", "value": "~24", "unit": "%"}, {"measurement": "percentage of cells staining positively", "setting": "[1]; VS-ASCs", "value": "~19", "unit": "%"}, {"measurement": "toxicity to cells", "setting": "DPSCs", "value": "not toxic"}]}]}
